Results on five compounds are retold here after patent US12213482B2, “Fungicide enhancers effective for treating plants infected with fungal pathogens” (Board of Regents, The University of Texas System, priority 2015, dated 2025).

Usually EC50 stands for the concentration needed to bring the measured effect to its halfway point.

For assay [1], the system named is Septoria tritici isolate G3-03. The assay is described as follows: Fungicide sensitivity testing by OD in 96 well plates, fungicides plus Enhancer A.I.1. It is filed as cell-based.
Assay [2] concerns Mycosphaerella graminicola isolate FLU4-02. Nature of the assay: Fungicide sensitivity testing by OD in 96 well plates, epoxiconazole plus enhancers. Type of assay: cell-based. Particulars: Zymoseptoria tritici, Enhancer Concentration 0 μg ml^−1 (epoxiconazole alone; one value per enhancer series).
Setting [3] is: Enhancer A.I.1 Concentration 0 μg ml^−1.
The mark [4] stands for this setting: Enhancer A.I.1 Concentration 0.003 μg ml^−1.
The mark [5] stands for this setting: Enhancer A.I.1 Concentration 0.016 μg ml^−1.
Setting [6] is: Enhancer A.I.1 Concentration 0.08 μg ml^−1.
[7] abbreviates: Enhancer A.I.1 Concentration 0.4 μg ml^−1.
The mark [8] stands for this setting: Enhancer A.I.1 Concentration 2.0 μg ml^−1.
Where [9] appears, read: Enhancer A.I.1 Concentration 10 μg ml^−1.

The structures appear in SMILES notation.

For `Cc1cc(C2CC2)nc(Nc2ccccc2)n1` [Cyprodinil], the “EC50 of the fungicide” value in assay [1] (setting [3]) was 3.055 µg/mL; in assay [1] (setting [4]), 3.135 µg/mL; in assay [1] (setting [5]) it was 2.995 µg/mL; in assay [1] (setting [6]), 2.838 µg/mL; in assay [1] (setting [7]), 3.244 µg/mL; in assay [1] (setting [8]) it was 4.046 µg/mL. The “EC50 of the fungicide” value in assay [1] (setting [9]) was 4.220 µg/mL.

As to `Fc1ccc([C@]2(Cn3cncn3)O[C@H]2c2ccccc2Cl)cc1` (racemic) [Epoxiconazole], the EC50 in assay [2] is 0.091 µg/mL. For the same compound, the “EC50 of the fungicide” value in assay [1] (setting [3]) was 0.142 µg/mL; in assay [1] (setting [4]) it was 0.142 µg/mL; in assay [1] (setting [5]) it was 0.141 µg/mL; in assay [1] (setting [6]), 0.145 µg/mL; in assay [1] (setting [7]) it was 0.06 µg/mL; in assay [1] (setting [8]), 0.008 µg/mL. The “EC50 of the fungicide” value in assay [1] (setting [9]) was 0.004 µg/mL.

Regarding `N#Cc1c(Cl)c(Cl)c(Cl)c(C#N)c1Cl` [Chlorothalonil], the “EC50 of the fungicide” value in assay [1] (setting [3]) was 0.370 µg/mL; in assay [1] (setting [4]), 0.369 µg/mL; in assay [1] (setting [5]), 0.357 µg/mL; in assay [1] (setting [6]), 0.369 µg/mL; in assay [1] (setting [7]) it was 0.335 µg/mL; in assay [1] (setting [8]), 0.36 µg/mL. Moreover, the “EC50 of the fungicide” value in assay [1] (setting [9]) is 0.364 µg/mL.

On to `CO/C=C(/C(=O)OC)c1ccccc1Oc1cc(Oc2ccccc2C#N)ncn1` [Azoxystrobin], for which the “EC50 of the fungicide” value in assay [1] (setting [3]) was determined as 7.210 µg/mL; in assay [1] (setting [4]) it was 7.339 µg/mL; in assay [1] (setting [5]), 7.071 µg/mL; in assay [1] (setting [6]) it was 6.914 µg/mL; in assay [1] (setting [7]), 6.958 µg/mL; in assay [1] (setting [8]), 5.157 µg/mL. In assay [1] (setting [9]), the “EC50 of the fungicide” value was 2.816 µg/mL.

For the compound `COC(=O)Nc1nc2ccccc2[nH]1` [Carbendazim], the “EC50 of the fungicide” value in assay [1] (setting [3]), in assay [1] (setting [4]), in assay [1] (setting [5]), in assay [1] (setting [6]), in assay [1] (setting [7]) and in assay [1] (setting [8]) was greater than 50 µg/mL in each case. Also, the “EC50 of the fungicide” value in assay [1] (setting [9]) was greater than 50 µg/mL.
